Laboratory results reported in patent publication US6143769A, “Phenylacetic acid benzylamides” (Karl Thomae GmbH, priority 1983, dated 2000).
Read-outs that look alike come from different tables or passages of the source.

How the values were obtained:
Assay type in all cases: in vivo
mice [1] = assay: Acute toxicity of compound N, single oral dose, mice; conditions: 14 days
Method: The toxic effect of a single dose of compound N administered orally (suspended in 1% methyl cellulose) was tested in male and female mice of our own strain weighing from 20-26 g over an observation period of 14 days.

blood glucose = assay: Test for hypoglycemic activity in fasted female rats (oral); conditions: Rattus norvegicus, po, read-out: Change in glucose content compared with control
Method: Blood samples were taken immediately before the administration of the test compound and 1, 2, 3 and 4 hours afterwards, in each case from the retroorbital Venous plexus. 50 μl of each sample were deproteinated with 0.5 ml of 0.33 N perchloric acid and centrifuged. The glucose in the supernatant fluid was measured using the hexokinase method with the aid of an analytical photometer. The statistical evaluation was made using the t-test according to Student with p=0.05 as the limit of significance.

mice [2] = assay: Acute toxicity, single oral dose 2,000 mg/kg, mice; conditions: 2,000 mg/kg p.o., 5 male and 5 female mice, 14 days

| SMILES | Deaths (mice [1]; 1000 mg/kg p.o.) | Approximate acute toxicity (mice [1]; p.o.) [mg/kg] | change in vivo at 0.1 mg/kg (blood glucose; 1 h) [%] | change in vivo at 0.1 mg/kg (blood glucose; 2 h) [%] | change in vivo at 0.1 mg/kg (blood glucose; 3 h) [%] | change in vivo at 0.1 mg/kg (blood glucose; 4 h) [%] | Deaths (mice [2]) | change in vivo at 1 mg/kg (blood glucose; 1 h) [%] | change in vivo at 1 mg/kg (blood glucose; 2 h) [%] | change in vivo at 1 mg/kg (blood glucose; 3 h) [%] | change in vivo at 1 mg/kg (blood glucose; 4 h) [%] |
| --- | --- | --- | --- | --- | --- | --- | --- | --- | --- | --- | --- |
| CCOc1cc(CC(=O)NC(CC(C)C)c2ccccc2N2CCCCC2)ccc1C(=O)O (racemic) [N, 2-ethoxy-4-[N-{1-(2-piperidino-phenyl)-3-methyl-1-butyl}-aminocarbonylmethyl]-benzoic acids] | 0 out of 6 animals died | > 1000 | -38 | -44 | -41 | -40 | – | – | – | – | – |
| CCOc1cc(CC(=O)NC(c2ccccc2)c2ccccc2N2CCCCC2)ccc1C(=O)O (stereo not drawn) [D, 2-ethoxy-4-[N-(α-phenyl-2-piperidino-benzyl)-aminocarbonylmethyl]-benzoic acid] | – | – | – | – | – | – | only one animal in this group died | -42 | -54 | -37 | -34 |
